Biological target: T1, p53 Y220C (Homo sapiens, UniProt P04637, Y220C)
T1 construct: The recombinant protein was a truncation mutant containing only amino acids 94-312 of p53; made in house; host or cells: E. coli
Assay: In vitro DNA binding activity assay (HTRF / TR-FRET): stabilization of p53 Y220C and increase of its DNA binding activity
Assay type: biochemical
Conditions: recombinant His-tagged p53 Y220C DNA binding domain (aa 94-312), biotin-labeled consensus DNA, incubated at 27° C. or 29° C. for 60 min
Protocol: The ability of a compound of the invention to stabilize p53 Y220C and increase the DNA binding activity of p53 Y220C was measured by a homogeneous time-resolved fluorescence (HTRF) assay. Recombinant His-tagged p53 Y220C used in the HTRF assay was expressed in the bacterium E. coli.
The binding of the recombinant His-tagged p53 Y220C protein and the biotin-labeled consensus DNA was measured using fluorescence resonance energy transfer (FRET). For the FRET assay, the binding between the p53 mutant and the DNA sequence was measured by detecting the fluorescence of the interaction between an anti-His antibody conjugated to allophycocyanin (APC) and streptavidin conjugated to europium to detect the biotin-labeled DNA.
The test compounds were prepared as 4.5 mM stock solutions in dimethyl sulfoxide (DMSO). The compounds of the disclosure were used to test the stabilization of p53 Y220C and increase in DNA binding activity of p53 Y220C. The stock solutions were then serially diluted 3-fold in DMSO, and 1.2 μL of the diluted solutions was added to each well of a 384-well polypropylene black plate.
The test and control samples were spun at 1200 rpm for 1 minute and incubated at room temperature for 15 minutes. […] The plates were spun at 1200 rpm for 1 minute and incubated at room temperature for 20 minutes. The assay signals were monitored by reading excitation at 340 nm, and emission fluorescence at 615 nm and 665 nm on a plate reader.
The percentage of activation of protein DNA binding in the presence of a compound of the invention compared to the absence of the compound was denoted by a SC150 value, which indicated the concentration of the compound required to increase the DNA binding activity by 50%. The SC150 values were calculated using either Prism™ or ActivityBase™.

T1 sequence (P04637 94-312, change not shown): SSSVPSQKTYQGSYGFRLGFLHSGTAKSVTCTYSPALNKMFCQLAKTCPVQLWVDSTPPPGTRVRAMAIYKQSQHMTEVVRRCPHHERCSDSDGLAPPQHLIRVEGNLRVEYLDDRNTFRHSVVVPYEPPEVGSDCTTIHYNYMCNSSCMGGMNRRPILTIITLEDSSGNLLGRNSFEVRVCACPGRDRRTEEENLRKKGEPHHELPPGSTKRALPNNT

SC150 (concentration of the compound required to increase the DNA binding activity by 50%), + (+ = 0 μM ≤ SC150 < 0.05 μM):
COc1cc(S(C)(=O)=O)ccc1NCC#Cc1cc2c(N[C@H]3CCC[C@@H](N)C3)cccc2n1CC(F)(F)F (racemic) [Compound 27A, rac-(1R,3S)-N^1-(2-{3-[(4-methanesulfonyl-2-methoxyphenyl)amino]prop-1-yn-1-yl}-1-(2,2,2-trifluoroethyl)-1H-indol-4-yl)cyclohexane-1,3-diamine]
COc1cc(S(C)(=O)=O)ccc1NCC#Cc1cc2c(N[C@H]3CCCC[C@H]3N)cccc2n1CC(F)(F)F (racemic) [Compound 29A, rac-(1R,2S)-N^1-(2-{3-[(4-methanesulfonyl-2-methoxyphenyl)amino]prop-1-yn-1-yl}-1-(2,2,2-trifluoroethyl)-1H-indol-4-yl)cyclo-hexane-1,2-diamine]
CCC(=O)OC(C)CN1CCC(Nc2cccc3c2cc(C#CCNc2ccc(S(C)(=O)=O)cc2OC)n3CC(F)(F)F)CC1 (racemic) [Compound 590A, 1-{4-[(2-{3-[(4-methanesulfonyl-2-methoxyphenyl)amino]prop-1-yn-1-yl}-1-(2,2,2-trifluoroethyl)-1H-indol-4-yl)amino]piperidin-1-yl}propan-2-yl propanoate]
COc1cc(S(C)(=O)=O)ccc1NCC#Cc1cc2c(NC3CCN(CC(C)OC(=O)C(C)C)CC3)cccc2n1CC(F)(F)F (racemic) [Compound 591A, 1-{4-[(2-{3-[(4-methanesulfonyl-2-methoxyphenyl)amino]prop-1-yn-1-yl}-1-(2,2,2-trifluoroethyl)-1H-indol-4-yl)amino]piperidin-1-yl}propan-2-yl 2-methylpropanoate]
COCC(O)CN1CC[C@H](Nc2cccc3c2cc(C#CCNc2ccc(S(C)(=O)=O)cc2OC)n3CC(F)(F)F)[C@H](C)C1 (mixture of isomers) [Compound 701A, rac-1-[(3R,4R)-4-[(2-{3-[(4-methanesulfonyl-2-methoxyphenyl)amino]prop-1-yn-1-yl}-1-(2,2,2-trifluoroethyl)-1H-indol-4-yl)amino]-3-methylpiperidin-1-yl]-3-methoxypropan-2-ol]
COCC(O)CN1CC[C@H](Nc2cccc3c2cc(C#CCNc2ccc(S(C)(=O)=O)cc2OC)n3CC(F)(F)F)[C@@H](C)C1 (mixture of isomers) [Compound 702A, rac-1-[(3R,4S)-4-[(2-{3-[(4-methanesulfonyl-2-methoxyphenyl)amino]prop-1-yn-1-yl}-1-(2,2,2-trifluoroethyl)-1H-indol-4-yl)amino]-3-methylpiperidin-1-yl]-3-methoxypropan-2-ol]
COc1cc(S(C)(=O)=O)ccc1NCC#Cc1cc2c(N[C@H]3CN(C)CC[C@H]3O)cccc2n1CC(F)(F)F (racemic) [Compound 766A, rac-(3R,4S)-3-[(2-{3-[(4-methanesulfonyl-2-methoxyphenyl)amino]prop-1-yn-1-yl}-1-(2,2,2-trifluoroethyl)-1H-indol-4-yl)amino]-1-methylpiperidin-4-ol]
COc1cc(S(C)(=O)=O)ccc1NCC#Cc1cc2c(N[C@H]3CCN(C)C[C@@H]3O)cccc2n1CC(F)(F)F (racemic) [Compound 767A, rac-(3R,4R)-4-[(2-{3-[(4-methanesulfonyl-2-methoxyphenyl)amino]prop-1-yn-1-yl}-1-(2,2,2-trifluoroethyl)-1H-indol-4-yl)amino]-1-methylpiperidin-3-ol]

— patent US12428406B2 (PMV Pharmaceuticals, Inc., priority 2019, dated 2025)
